# Active and inactive are the calls of the source. No cut-off for these calls is given here.
# Experiments:
# L5178Y [1] = test: Cytotoxicity against parental mouse L5178Y cells assessed as inhibition of cell growth incubated for 24 hrs by MTT assay; format: functional, cell-based
# L5178Y [2] = test: Antiproliferative activity against multidrug resistant mouse L5178Y cells expressing ABCB1 assessed as inhibition of cell growth incubated for 72 hrs by MTT assay; format: functional, cell-based
# L5178Y [3] = test: Antiproliferative activity against parental mouse L5178Y cells assessed as inhibition of cell growth incubated for 72 hrs by MTT assay; format: functional, cell-based
# L5178Y [4] = test: Cytotoxicity against multidrug resistant mouse L5178Y cells expressing ABCB1 assessed as inhibition of cell growth incubated for 24 hrs by MTT assay; format: functional, cell-based
# Jurkat [5] = test: Induction of cell cycle arrest in human Jurkat cells assessed as reduction in cyclin D1 gene expression at 50 uM incubated for 24 hrs by qPCR analysis; format: functional, cell-based
# [6] = Cytotoxicity against human HuT 102 cells assessed as inhibition of cell growth incubated for 72 hrs by MTS assay; format: functional, cell-based; settings: HuT-102, 72 h
# L5178Y [7] = test: Synergistic antiproliferative activity against multidrug resistant mouse L5178Y cells expressing ABCB1 assessed as combination index at 50 uM incubated for 72 hrs in presence of doxorubicin at 17.242 uM by checkerboard assay; format: functional
# [8] = Cytotoxicity against human skin fibroblast cells assessed as inhibition of cell growth incubated for 72 hrs by MTS assay; format: toxicity, cell-based
# Jurkat [9] = test: Induction of cell cycle arrest in human Jurkat cells assessed as increase in p53 transcription at 50 uM incubated for 24 hrs by qPCR analysis; format: functional, cell-based
# Jurkat [10] = test: Induction of cell cycle arrest in human Jurkat cells assessed as increase in p21 transcription at 50 uM incubated for 24 hrs by qPCR analysis; format: functional, cell-based
# Jurkat [11] = test: Induction of cell cycle arrest in human Jurkat cells assessed as reduction in cyclin E1 gene expression at 50 uM incubated for 24 hrs by qPCR analysis; format: functional, cell-based
# Jurkat [12] = test: Synergistic induction of cell cycle arrest in human Jurkat cells assessed as reduction in cyclin E1 gene expression at 50 uM incubated for 24 hrs in presence of doxorubicin at 50 nM by qPCR analysis; format: functional, cell-based
# L5178Y [13] = test: Synergistic antiproliferative activity against multidrug resistant mouse L5178Y cells expressing ABCB1 assessed as combination index at 150 uM incubated for 72 hrs in presence of doxorubicin at 17.242 uM by checkerboard assay; format: functional
# L5178Y [14] = test: Synergistic antiproliferative activity against multidrug resistant mouse L5178Y cells expressing ABCB1 assessed as combination index at 100 uM incubated for 72 hrs in presence of doxorubicin at 17.242 uM by checkerboard assay; format: functional
# L5178Y [15] = test: Synergistic antiproliferative activity against multidrug resistant mouse L5178Y cells expressing ABCB1 assessed as combination index at 200 uM incubated for 72 hrs in presence of doxorubicin at 17.242 uM by checkerboard assay; format: functional
# Jurkat [16] = test: Induction of cell cycle arrest in human Jurkat cells assessed as increase in p53 gene expression at 50 uM incubated for 24 hrs by qPCR analysis; format: functional, cell-based
# Jurkat [17] = test: Synergistic induction of cell cycle arrest in human Jurkat cells assessed as increase in p53 gene expression at 50 uM incubated for 24 hrs in presence of doxorubicin at 50 nM by qPCR analysis; format: functional, cell-based
# Jurkat [18] = test: Induction of cell cycle arrest in human Jurkat cells assessed as increase in p21 gene expression at 50 uM incubated for 24 hrs by qPCR analysis; format: functional, cell-based
# Jurkat [19] = test: Synergistic induction of cell cycle arrest in human Jurkat cells assessed as increase in p21 gene expression at 50 uM incubated for 24 hrs in presence of doxorubicin at 50 nM by qPCR analysis; format: functional, cell-based
# Jurkat [20] = test: Synergistic induction of cell cycle arrest in human Jurkat cells assessed as reduction in cyclin D1 gene expression at 50 uM incubated for 24 hrs in presence of doxorubicin at 50 nM by qPCR analysis; format: functional, cell-based
# [21] = Upregulation of ABCB1 gene expression in human SH-SY5Y cells at 20 uM incubated for 96 hrs by RT-PCR analysis; format: toxicity, cell-based
# [22] = Upregulation of ABCC1 gene expression in human SH-SY5Y cells at 20 uM incubated for 96 hrs by RT-PCR analysis; format: toxicity, cell-based
# [23] = Upregulation of ABCG2 gene expression in human SH-SY5Y cells at 20 uM incubated for 96 hrs by RT-PCR analysis; format: toxicity, cell-based
# L5178Y [24] = test: Synergistic antiproliferative activity against multidrug resistant mouse L5178Y cells expressing ABCB1 assessed as combination index at 60 uM incubated for 72 hrs in presence of doxorubicin at 17.242 uM by checkerboard assay; format: functional
# [25] = Selectivity index, ratio of IC50 for parental mouse L5178Y cells to IC50 for multidrug resistant mouse L5178Y cells expressing ABCB1; format: functional
SMILES,IC50 (L5178Y [1]) [µM],IC50 (L5178Y [2]) [µM],IC50 (L5178Y [3]) [µM],IC50 (L5178Y [4]) [µM],other results
CCC(SCc1ccccc1)c1nc(N)nc(N2CCN(C)CC2)n1 (stereo not drawn),59.2,67.3,83,> 100,
CCCC(Sc1ccccc1)c1nc(N)nc(N2CCN(C)CC2)n1.Cl (stereo not drawn),15,16.6,15.5,21.2,Activity (Jurkat [5]): inactive; IC50 [6]: 58.2 µM; CI (L5178Y [7]): 0.044; IC50 at 72 h [8]: > 100 µM; Activity (Jurkat [9]): Active; Activity (Jurkat [10]): Active; Activity (Jurkat [11]): Active; Activity (Jurkat [12]): Active
CCCC(Sc1ccc2ccccc2c1)c1nc(N)nc(N2CCN(C)CC2)n1 (stereo not drawn),23.9,42.7,43.3,53.2,
CN1CCN(c2nc(N)nc(CCCSCc3ccccc3)n2)CC1,27.7,51.5,38.8,61.3,
CCC(Sc1ccc2ccccc2c1)c1nc(N)nc(N2CCN(C)CC2)n1 (stereo not drawn),17.8,27.5,21.2,30.4,
CC(SCc1ccccc1)c1nc(N)nc(N2CCN(C)CC2)n1 (stereo not drawn),91.8,92.4,> 100,> 100,
CN1CCN(c2nc(N)nc(CCCSc3ccccc3)n2)CC1.Cl,30.1,28.6,34.1,52,CI (L5178Y [13]): 0.199
CN1CCN(c2nc(N)nc(CCC[Se]Cc3ccccc3)n2)CC1,32,38.6,30.8,57.4,
CCC(Sc1cccc2ccccc12)c1nc(N)nc(N2CCN(C)CC2)n1 (stereo not drawn),22.6,31.1,28.2,30.3,
CN1CCN(c2nc(N)nc(CCSc3ccccc3)n2)CC1,60.8,33.8,54.5,67,
CC(Sc1ccc2ccccc2c1)c1nc(N)nc(N2CCN(C)CC2)n1 (stereo not drawn),18.4,18.6,21.3,28.1,
COc1cccc2c1C(=O)c1c(O)c3c(c(O)c1C2=O)C[C@@](O)(C(=O)CO)C[C@@H]3O[C@H]1C[C@H](N)[C@H](O)[C@H](C)O1 [DOXORUBICIN],0.7,1.75,0.28,2.14,
CN1CCN(c2nc(N)nc(CSc3ccc4ccccc4c3)n2)CC1.Cl,27.1,13.5,19,36.6,CI (L5178Y [14]): 0.415
CN1CCN(c2nc(N)nc(C(C)(C)Sc3ccccc3)n2)CC1.Cl,68.8,53,65.2,83.9,CI (L5178Y [15]): 0.41
CN1CCN(c2nc(N)nc(CCSCc3ccccc3)n2)CC1.Cl,82.4,32.2,38.6,70.9,CI (L5178Y [15]): 0.323
CN1CCN(c2nc(N)nc(C[Se]Cc3ccccc3)n2)CC1,> 100,22.7,45.6,> 100,

SMILES,IC50 (L5178Y [1]) [µM],IC50 (L5178Y [2]) [µM],IC50 (L5178Y [3]) [µM],IC50 (L5178Y [4]) [µM],other results
CCC([Se]Cc1ccccc1)c1nc(N)nc(N2CCN(C)CC2)n1 (stereo not drawn),8.66,11.8,10.7,25.3,Activity (Jurkat [5]): Active; Activity (Jurkat [16]): Active; IC50 [6]: 44.3 µM; IC50 at 72 h [8]: > 100 µM; Activity (Jurkat [17]): Active; Activity (Jurkat [11]): Active; Activity (Jurkat [18]): Active; Activity (Jurkat [19]): Active
CCCC(SCc1ccccc1)c1nc(N)nc(N2CCN(C)CC2)n1.Cl (stereo not drawn),36,23.5,24.2,54.6,CI (L5178Y [13]): 0.142
CN1CCN(c2nc(N)nc(CCC[Se]c3ccccc3)n2)CC1.Cl,33.4,11.6,13.3,42.2,Activity (Jurkat [5]): Active; Activity (Jurkat [20]): Active; IC50 [6]: 62 µM; CI (L5178Y [14]): 0.309; IC50 at 72 h [8]: > 100 µM; Activity (Jurkat [11]): Active; Activity (Jurkat [12]): Active
CC(Sc1ccccc1)c1nc(N)nc(N2CCN(C)CC2)n1 (stereo not drawn),> 100,68.7,> 100,> 100,
CCCCC(SCc1ccccc1)c1nc(N)nc(N2CCN(C)CC2)n1 (stereo not drawn),19.7,28.1,25.8,30.6,
CCC(Sc1ccccc1)c1nc(N)nc(N2CCN(C)CC2)n1.Cl (stereo not drawn),54.4,47,58,81.5,CI (L5178Y [15]): 0.127
CN1CCN(c2nc(N)nc(C(C)(C)Sc3cccc4ccccc34)n2)CC1,14.8,24.7,19.9,23.4,
CCCCC(Sc1ccccc1)c1nc(N)nc(N2CCN(C)CC2)n1.Cl (stereo not drawn),15.5,17.4,20.6,21.6,CI (L5178Y [7]): 0.148
CC(Sc1cccc2ccccc12)c1nc(N)nc(N2CCN(C)CC2)n1 (stereo not drawn),15.5,32.8,23.3,32.4,
CN1CCN(c2nc(N)nc(C(C)(C)Sc3ccc4ccccc4c3)n2)CC1,24.8,38.5,26.4,29,
CN1CCN(c2nc(N)nc(CCCSc3ccc4ccccc4c3)n2)CC1.Cl,11.4,5.35,6.71,16.7,Activity (Jurkat [5]): Active; Activity (Jurkat [20]): Active; IC50 [6]: 19.7 µM; Activity [21]: Toxic; Activity [22]: Toxic; IC50 at 72 h [8]: 79.1 µM; Activity (Jurkat [9]): Active; Activity (Jurkat [17]): Active; Activity (Jurkat [10]): Active; Activity (Jurkat [11]): Active; Activity [23]: Toxic; CI (L5178Y [24]): 0.18; Activity (Jurkat [12]): Active; Activity (Jurkat [19]): Active
CCCCC(Sc1ccc2ccccc2c1)c1nc(N)nc(N2CCN(C)CC2)n1 (stereo not drawn),23.2,35.5,36.4,45.2,
CN1CCN(c2nc(N)nc(CSc3ccccc3)n2)CC1,> 100,79.9,> 100,> 100,
CN1CCN(c2nc(N)nc(CSCc3ccccc3)n2)CC1,> 100,37.2,57.2,> 100,
CCCC([Se]c1ccccc1)c1nc(N)nc(N2CCN(C)CC2)n1.Cl (stereo not drawn),38.6,6.03,14.4,76.8,Activity (Jurkat [5]): Active; Activity (Jurkat [20]): Active; IC50 [6]: 54.3 µM; Ratio IC50 [25]: >2; IC50 at 72 h [8]: > 100 µM; Activity (Jurkat [17]): Active; CI (L5178Y [15]): 0.092; Activity (Jurkat [11]): Active; Activity (Jurkat [18]): Active; Activity (Jurkat [19]): Active
